The values below come from patent US12428406B2 (PMV Pharmaceuticals, Inc., priority 2019, dated 2025).

T1 sequence (P04637 94-312, change not shown): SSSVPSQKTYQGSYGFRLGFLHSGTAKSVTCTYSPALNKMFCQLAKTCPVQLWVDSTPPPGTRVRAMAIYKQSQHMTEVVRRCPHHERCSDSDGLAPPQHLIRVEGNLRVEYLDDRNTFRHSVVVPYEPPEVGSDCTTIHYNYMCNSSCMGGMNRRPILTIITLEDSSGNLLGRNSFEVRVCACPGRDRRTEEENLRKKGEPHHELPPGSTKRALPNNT

This test concerns the target T1, p53 Y220C (Homo sapiens, UniProt P04637, Y220C).
T1 construct: The recombinant protein was a truncation mutant containing only amino acids 94-312 of p53; made in house; host or cells: E. coli
Nature of the test: In vitro DNA binding activity assay (HTRF / TR-FRET): stabilization of p53 Y220C and increase of its DNA binding activity. In kind it is biochemical. The settings on record: recombinant His-tagged p53 Y220C DNA binding domain (aa 94-312), biotin-labeled consensus DNA, incubated at 27° C. or 29° C. for 60 min. A digest of the protocol: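 E. coli His-p53 Y220C + biotin consensus DNA; anti-His-APC/SA-Eu TR-FRET. SC150 vs no-compound.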
In general terms: In TR-FRET formats the signal depends on donor and acceptor labels being close together.
In the case of `CS(=O)(=O)c1ccc(NCC#Cc2cc3c(N[C@H]4CC[C@@H](N5CC6(COC6)C5)CC4)cccc3n2CC(F)(F)F)c(OCC#N)c1` [Compound 223A, 2-(5-methanesulfonyl-2-{[3-(4-{[(1S,4S)-4-{2-oxa-6-azaspiro[3.3]heptan-6-yl}cyclo-hexyl]amino}-1-(2,2,2-trifluoroethyl)-1H-indol-2-yl)prop-2-yn-1-yl]amino}phenoxy) acetonitrile], the “SC150 (concentration of the compound required to increase the DNA binding activity by 50%)” value is reported as “+ (+ = 0 μM ≤ SC150 < 0.05 μM)”.

As to `CC(C)C(=O)Oc1cc(S(C)(=O)=O)ccc1NCC#Cc1cc2c(N[C@H]3CC[C@@H](N4CC5(COC5)C4)CC3)cccc2n1CC(F)(F)F` [Compound 224A, 5-methanesulfonyl-2-{[3-(4-{[(1S,4S)-4-{2-oxa-6-azaspiro[3.3]heptan-6-yl}cyclohexyl]amino}-1-(2,2,2-trifluoroethyl)-1H-indol-2-yl)prop-2-yn-1-yl]amino}phenyl 2-methylpropanoate], the “SC150 (concentration of the compound required to increase the DNA binding activity by 50%)” value was “+ (+ = 0 μM ≤ SC150 < 0.05 μM)”. `CS(=O)(=O)c1ccc(NCC#Cc2cc3c(N[C@H]4CC[C@H](N5CC6(COC6)C5)CC4)cccc3n2CC(F)(F)F)c(OCCO)c1` [Compound 225A, 2-(5-methanesulfonyl-2-{[3-(4-{[(1R,4R)-4-{2-oxa-6-azaspiro[3.3]heptan-6-yl}cyclo-hexyl]amino}-1-(2,2,2-trifluoroethyl)-1H-indol-2-yl)prop-2-yn-1-yl]amino}phenoxy)ethan-1-ol]: the “SC150 (concentration of the compound required to increase the DNA binding activity by 50%)” value was “+ (+ = 0 μM ≤ SC150 < 0.05 μM)”.

With `CS(=O)(=O)c1ccc(NCC#Cc2cc3c(N[C@H]4CC[C@@H](N5CC6(COC6)C5)CC4)cccc3n2CC(F)(F)F)c(OCCO)c1` [Compound 226A, 2-(5-methanesulfonyl-2-{[3-(4-{[(1S,4S)-4-{2-oxa-6-azaspiro[3.3]heptan-6-yl}cyclo-hexyl]amino}-1-(2,2,2-trifluoroethyl)-1H-indol-2-yl)prop-2-yn-1-yl]amino}phenoxy)ethan-1-ol], the “SC150 (concentration of the compound required to increase the DNA binding activity by 50%)” value is on record as “+ (+ = 0 μM ≤ SC150 < 0.05 μM)”. Next, `CC(C)C(=O)Oc1cc(S(C)(=O)=O)ccc1NCC#Cc1cc2c(N[C@H]3CC[C@H](N4CC5(COC5)C4)CC3)cccc2n1CC(F)(F)F` [Compound 228A, 5-methanesulfonyl-2-{[3-(4-{[(1R,4R)-4-{2-oxa-6-azaspiro[3.3]heptan-6-yl}cyclohexyl]amino}-1-(2,2,2-trifluoroethyl)-1H-indol-2-yl)prop-2-yn-1-yl]amino}phenyl 2-methylpropanoate]: “+ (+ = 0 μM ≤ SC150 < 0.05 μM)”. Take `CNC(=O)c1ccc(NCC#Cc2cc3c(N[C@H]4CC[C@H](N5CC6(COC6)C5)CC4)cccc3n2CC(F)(F)F)c(OC)c1` [Compound 229A, 3-methoxy-N-methyl-4-{[3-(4-{[(1R,4R)-4-{2-oxa-6-azaspiro[3.3]heptan-6-yl}cyclohexyl]amino}-1-(2,2,2-trifluoroethyl)-1H-indol-2-yl)prop-2-yn-1-yl]amino}benzamide]: the “SC150 (concentration of the compound required to increase the DNA binding activity by 50%)” value was “+ (+ = 0 μM ≤ SC150 < 0.05 μM)”. The same measure for `CNC(=O)c1ccc(NCC#Cc2cc3c(N[C@H]4CC[C@@H](N5CC6(COC6)C5)CC4)cccc3n2CC(F)(F)F)c(OC)c1` [Compound 230A, 3-methoxy-N-methyl-4-{[3-(4-{[(1S,4S)-4-{2-oxa-6-azaspiro[3.3]heptan-6-yl}cyclo-hexyl]amino}-1-(2,2,2-trifluoroethyl)-1H-indol-2-yl)prop-2-yn-1-yl]amino}benzamide]: “+ (+ = 0 μM ≤ SC150 < 0.05 μM)”; for `CS(=O)(=O)c1ccc(NCC#Cc2cc3c(N[C@H]4CC[C@H](N5CC6(COC6)C5)CC4)cccc3n2CC(F)(F)F)c(OCC(F)(F)F)c1` [Compound 231A, 2-(3-{[4-methane-sulfonyl-2-(2,2,2-trifluoro-ethoxy)phenyl]amino}prop-1-yn-1-yl)-N-[(1R,4R)-4-{2-oxa-6-azaspiro[3.3]heptan-6-yl}cyclohexyl]-1-(2,2,2-trifluoroethyl)-1H-indol-4-amine]: “+ (+ = 0 μM ≤ SC150 < 0.05 μM)”; for `CS(=O)(=O)c1ccc(NCC#Cc2cc3c(N[C@H]4CC[C@@H](N5CC6(COC6)C5)CC4)cccc3n2CC(F)(F)F)c(OCC(F)(F)F)c1` [Compound 232A, 2-(3-{[4-methane-sulfonyl-2-(2,2,2-trifluoro-ethoxy)phenyl]amino}prop-1-yn-1-yl)-N-[(1S,4S)-4-{2-oxa-6-azaspiro[3.3]heptan-6-yl}cyclohexyl]-1-(2,2,2-trifluoroethyl)-1H-indol-4-amine]: “+ (+ = 0 μM ≤ SC150 < 0.05 μM)”. On to `CS(=O)(=O)c1ccc(OCC#Cc2cc3c(N[C@H]4CC[C@@H](N5CC6(COC6)C5)CC4)cccc3n2CC(F)(F)F)c(N)c1` [Compound 233A, 2-[3-(2-amino-4-methanesulfonyl-phenoxy)prop-1-yn-1-yl]-N-[(1S,4S)-4-{2-oxa-6-azaspiro[3.3]heptan-6-yl}cyclohexyl]-1-(2,2,2-trifluoroethyl)-1H-indol-4-amine], for which the “SC150 (concentration of the compound required to increase the DNA binding activity by 50%)” value is “++ (++ = 0.05 μM ≤ SC150 < 0.1 μM)”.

As for `CCOc1cc(S(C)(=O)=O)ccc1NCC#Cc1cc2c(N[C@H]3CC[C@H](N4CC5(COC5)C4)CC3)cccc2n1CC(F)(F)F` [Compound 234A, 2-{3-[(2-ethoxy-4-methanesulfonylphenyl)amino]prop-1-yn-1-yl}-N-[(1R,4R)-4-{2-oxa-6-azaspiro[3.3]heptan-6-yl}cyclohexyl]-1-(2,2,2-trifluoroethyl)-1H-indol-4-amine], the “SC150 (concentration of the compound required to increase the DNA binding activity by 50%)” value is “+ (+ = 0 μM ≤ SC150 < 0.05 μM)”. The same measure for `CCOc1cc(S(C)(=O)=O)ccc1NCC#Cc1cc2c(N[C@H]3CC[C@@H](N4CC5(COC5)C4)CC3)cccc2n1CC(F)(F)F` [Compound 235A, 2-{3-[(2-ethoxy-4-methanesulfonyl-phenyl)amino]prop-1-yn-1-yl}-N-[(1S,4S)-4-{2-oxa-6-azaspiro[3.3]heptan-6-yl}cyclo-hexyl]-1-(2,2,2-trifluoroethyl)-1H-indol-4-amine]: “+ (+ = 0 μM ≤ SC150 < 0.05 μM)”. The same measure for `CNC(=O)c1ccc(NCC#Cc2cc3c(N[C@H]4CC[C@H](N5CC6(COC6)C5)CC4)cccc3n2CC(F)(F)F)c(OCCOC)c1` [Compound 236A, 3-(2-methoxyethoxy)-N-methyl-4-{[3-(4-{[(1R,4R)-4-{2-oxa-6-azaspiro[3.3]heptan-6-yl}cyclohexyl]amino}-1-(2,2,2-trifluoroethyl)-1H-indol-2-yl)prop-2-yn-1-yl]amino} benzamide]: “+ (+ = 0 μM ≤ SC150 < 0.05 μM)”.

With `CNC(=O)c1ccc(NCC#Cc2cc3c(N[C@H]4CC[C@@H](N5CC6(COC6)C5)CC4)cccc3n2CC(F)(F)F)c(OCCOC)c1` [Compound 237A, 3-(2-methoxyethoxy)-N-methyl-4-{[3-(4-{[(1S,4S)-4-{2-oxa-6-azaspiro[3.3]heptan-6-yl}cyclohexyl]amino}-1-(2,2,2-trifluoroethyl)-1H-indol-2-yl)prop-2-yn-1-yl]amino} benzamide], the “SC150 (concentration of the compound required to increase the DNA binding activity by 50%)” value was “+ (+ = 0 μM ≤ SC150 < 0.05 μM)”.

`CCNC(=O)c1ccc(NCC#Cc2cc3c(N[C@H]4CC[C@@H](N5CC6(COC6)C5)CC4)cccc3n2CC(F)(F)F)c(OC)c1` [Compound 238A, N-ethyl-3-methoxy-4-{[3-(4-{[(1R,4R)-4-{2-oxa-6-azaspiro[3.3]heptan-6-yl}cyclohexyl]amino}-1-(2,2,2-trifluoro-ethyl)-1H-indol-2-yl)prop-2-yn-1-yl]amino} benzamide]: the “SC150 (concentration of the compound required to increase the DNA binding activity by 50%)” value is recorded as “+ (+ = 0 μM ≤ SC150 < 0.05 μM)”. Regarding `CNC(=O)c1ccc(NCC#Cc2cc3c(N[C@H]4CC[C@H](N5CC6(COC6)C5)CC4)cccc3n2CC(F)(F)F)c(OCCF)c1` [Compound 240A, 3-(2-fluoroethoxy)-N-methyl-4-{[3-(4-{[(1R,4R)-4-{2-oxa-6-azaspiro[3.3]heptan-6-yl}cyclohexyl]amino}-1-(2,2,2-trifluoroethyl)-1H-indol-2-yl)prop-2-yn-1-yl]amino}benzamide], the “SC150 (concentration of the compound required to increase the DNA binding activity by 50%)” value is “+ (+ = 0 μM ≤ SC150 < 0.05 μM)”. Next, `CNC(=O)c1ccc(NCC#Cc2cc3c(N[C@H]4CC[C@@H](N5CC6(COC6)C5)CC4)cccc3n2CC(F)(F)F)c(OCCF)c1` [Compound 241A, 3-(2-fluoroethoxy)-N-methyl-4-{[3-(4-{[(1S,4S)-4-{2-oxa-6-azaspiro[3.3]heptan-6-yl}cyclohexyl]amino}-1-(2,2,2-trifluoroethyl)-1H-indol-2-yl)prop-2-yn-1-yl]amino}benzamide]: “+ (+ = 0 μM ≤ SC150 < 0.05 μM)”; `CNC(=O)c1ccc(NCC#Cc2cc3c(N[C@H]4CC[C@H](N5CC6(COC6)C5)CC4)cccc3n2CC(F)(F)F)c(OCC#N)c1` [Compound 242A, 3-(cyanomethoxy)-N-methyl-4-{[3-(4-{[(1R,4R)-4-{2-oxa-6-azaspiro[3.3]heptan-6-yl}cyclohexyl]amino}-1-(2,2,2-trifluoroethyl)-1H-indol-2-yl)prop-2-yn-1-yl]amino}benzamide]: “+ (+ = 0 μM ≤ SC150 < 0.05 μM)”; `CNC(=O)c1ccc(NCC#Cc2cc3c(N[C@H]4CC[C@@H](N5CC6(COC6)C5)CC4)cccc3n2CC(F)(F)F)c(OCC#N)c1` [Compound 243A, 3-(cyanomethoxy)-N-methyl-4-{[3-(4-{[(1S,4S)-4-{2-oxa-6-azaspiro[3.3]heptan-6-yl}cyclohexyl]amino}-1-(2,2,2-trifluoroethyl)-1H-indol-2-yl)prop-2-yn-1-yl]amino}benzamide]: “+ (+ = 0 μM ≤ SC150 < 0.05 μM)”.
